The EC50 is the concentration needed to bring the measured effect to its halfway point.

The results in this text go back to patent publication US20240067632A1, “WEE1 Degrading Compounds and Uses Thereof” (Bristol-Myers Squibb Company, priority 2022, published 2024).

In one assay the test system is MKN45 cells. The assay is described as follows: MKN45 cell proliferation assay (Cell-Titer-Glo, 120 h). The class given is cell-based. The note with it: for EC50: Homo sapiens, MKN-45, 120 h, Cell-Titer-Glo, read-out: MKN45 Cell Prolif. 120 hr (EC50); for MKN45 Cell Prolif. 120 hr (Ymin-Obs): minimal percent of DMSO control observed in the concentrations tested. The method in brief: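 Growth inhibition was read as blank-corrected Cell-Titer-Glo luminescence expressed as percent DMSO control after 120 h at 37 C, 400 cells/well. Compounds tested in triplicate as 10-point half-log series from 1 or 10 uM, 0.1% DMSO; four-parameter fit gave EC50, and lowest observed percent control was reported as Ymin-obs.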

The target in the next assay is T1, WEE1 (Homo sapiens, UniProt P30291+Q96SW2).
T1 construct: C-terminal ePL-tagged (DiscoverX, Fremont, CA) full-length WEE1 expression construct; expressed in transfected cells; host or cells: LentiX-HEK293T (Invitrogen), lentiviral transduction; co-expressing GSPT1-GN (G576N, lacking the first 158 amino acids)
As to the kind of experiment: WEE1-ePL degradation assay (LentiX-WEE1-ePL-GSPT1-ND cells, InCELL Hunter luminescence, 4 h). It is filed as cell-based. The note with it: 293T-LentiX WEE1-ePL cells; for DC50: read-out: 293T-LentiX WEE1-ePL Degradation 4 hr (EC50). The method in brief:
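HEK293T cells stably expressing C-terminal ePL-tagged full-length WEE1, 2500 cells/well, treated 4 h at 37° C with a 10-point 3-fold series from 1 or 10 uM. Remaining WEE1-ePL read by InCELL Hunter luminescence after 30 min. EC50 came from a four-parameter logistic fit, with Ymax set from DMSO control.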

[1] abbreviates: lower limit of the fit (Ymin=0 luciferase inhibitor, Ymax DMSO control).
The mark [2] stands for this setting: lower limit of the fit (0 = luciferase inhibitor, Ymax = DMSO control).

Where two headings read alike, the source gives them in different places.

Take `COC[C@@H]1CCC[C@@H]1c1ccc2cc(CN3CC[C@H](Oc4ccc5c(c4)CN(C4CCC(=O)NC4=O)C5=O)C3)ccc2n1` (stereo partly drawn) [3-(5-{[(3S)-1-({2-[(1S,2R)-2-(methoxymethyl)cyclopentyl]quinolin-6-yl}methyl)pyrrolidin-3-yl]oxy}-1-oxo-2,3-dihydro-1H-isoindol-2-yl)piperidine-2,6-dione]: in the assay on MKN45 cells, the concentration giving a half-maximal response (EC50) came to 5.76 nM and the “MKN45 Cell Prolif. 120 hr (Ymin-Obs)” value turned out to be 11.34. Also, the “293T-LentiX WEE1-ePL Degradation 4 hr (Ymin)” value at WEE1 (setting [1]) amounted to 26.36. Besides, at WEE1, the DC50 came to 0.334 nM.

Consider `CO[C@@H]1CCCC[C@H]1c1ccc2cc(CN3CC[C@H](Oc4ccc5c(c4)CN(C4CCC(=O)NC4=O)C5=O)C3)ccc2n1` (stereo partly drawn) [3-(5-{[(3S)-1-({2-[(1S,2R)-2-methoxycyclohexyl]quinolin-6-yl}methyl)pyrrolidin-3-yl]oxy}-1-oxo-2,3-dihydro-1H-isoindol-2-yl)piperidine-2,6-dione], for which, in the assay with MKN45 cells, the EC50 worked out at 428 nM and the “MKN45 Cell Prolif. 120 hr (Ymin-Obs)” value was 51.58. The “293T-LentiX WEE1-ePL Degradation 4 hr (Ymin)” value on WEE1 (setting [1]) worked out at 32.43. Also, the DC50 on WEE1 was 21.5 nM.

In the case of `CO[C@@H]1CCC[C@H]1c1ccc2cc(CN3CC[C@H](Oc4ccc5c(c4)CN(C4CCC(=O)NC4=O)C5=O)C3)ccc2n1` (stereo partly drawn) [3-(5-{[(3S)-1-({2-[(1S,2R)-2-methoxycyclopentyl]quinolin-6-yl}methyl)pyrrolidin-3-yl]oxy}-1-oxo-2,3-dihydro-1H-isoindol-2-yl)piperidine-2,6-dione], in the assay on MKN45 cells, the concentration for a half-maximal effect (EC50) is 12 nM and the “MKN45 Cell Prolif. 120 hr (Ymin-Obs)” value was determined as 13.63. Further, the “293T-LentiX WEE1-ePL Degradation 4 hr (Ymin)” value on WEE1 (setting [1]) worked out at 37.17. In addition, the DC50 on WEE1 was 3.01 nM.

With `COC[C@H]1CCCC[C@@H]1c1ccc2cc(CN3CC[C@H](Oc4ccc5c(c4)CN(C4CCC(=O)NC4=O)C5=O)C3)ccc2n1` (stereo partly drawn) [3-(5-{[(3S)-1-({2-[(1S,2S)-2-(methoxymethyl)cyclohexyl]quinolin-6-yl}methyl)pyrrolidin-3-yl]oxy}-1-oxo-2,3-dihydro-1H-isoindol-2-yl)piperidine-2,6-dione], in the assay with MKN45 cells, the EC50 was 1.43 nM and the “MKN45 Cell Prolif. 120 hr (Ymin-Obs)” value was determined as 11.37. Also, the “293T-LentiX WEE1-ePL Degradation 4 hr (Ymin)” value on WEE1 (setting [1]) came out at 21.7. Besides, the DC50 at WEE1 worked out at 3.03 nM.

`COC[C@H]1CCC[C@@H]1c1ccc2cc(CN3CC[C@H](Oc4ccc5c(c4)CN(C4CCC(=O)NC4=O)C5=O)C3)ccc2n1` (stereo partly drawn) [3-(5-{[(3S)-1-({2-[(1S,2S)-2-(methoxymethyl)cyclopentyl]quinolin-6-yl}methyl)pyrrolidin-3-yl]oxy}-1-oxo-2,3-dihydro-1H-isoindol-2-yl)piperidine-2,6-dione]: in the assay on MKN45 cells, the 50% effective concentration (EC50) worked out at 11.9 nM and the “MKN45 Cell Prolif. 120 hr (Ymin-Obs)” value amounted to 11.37. Also, the “293T-LentiX WEE1-ePL Degradation 4 hr (Ymin)” value on WEE1 (setting [1]) is recorded as 27.68. In addition, the DC50 at WEE1 amounted to 5.38 nM.

Turning to `COC[C@@H]1CCC[C@H](c2ccc3cc(CN4CC[C@H](Oc5ccc6c(c5)CN(C5CCC(=O)NC5=O)C6=O)C4)ccc3n2)C1` (stereo partly drawn) [3-(5-{[(3S)-1-({2-[(1S,3R)-3-(methoxymethyl)cyclohexyl]quinolin-6-yl}methyl)pyrrolidin-3-yl]oxy}-1-oxo-2,3-dihydro-1H-isoindol-2-yl)piperidine-2,6-dione], in the assay on MKN45 cells, the concentration for a half-maximal effect (EC50) was 1.73 nM and the “MKN45 Cell Prolif. 120 hr (Ymin-Obs)” value was determined as 10.23. Besides, at WEE1 (setting [1]), the “293T-LentiX WEE1-ePL Degradation 4 hr (Ymin)” value is on record as 27.12. The DC50 on WEE1 stood at 1.63 nM.

As to `COC[C@@H]1CC[C@H](c2ccc3cc(CN4CC[C@H](Oc5ccc6c(c5)CN(C5CCC(=O)NC5=O)C6=O)C4)ccc3n2)C1` (stereo partly drawn) [3-(5-{[(3S)-1-({2-[(1S,3R)-3-(methoxymethyl)cyclopentyl]quinolin-6-yl}methyl)pyrrolidin-3-yl]oxy}-1-oxo-2,3-dihydro-1H-isoindol-2-yl)piperidine-2,6-dione], in the assay with MKN45 cells, the concentration giving a half-maximal response (EC50) is 2.56 nM and the “MKN45 Cell Prolif. 120 hr (Ymin-Obs)” value came to 8.786. The “293T-LentiX WEE1-ePL Degradation 4 hr (Ymin)” value at WEE1 (setting [1]) was 32.37. Further, the DC50 at WEE1 stood at 5.9 nM.

`O=C1CCC(N2Cc3cc(O[C@H]4CCN(Cc5ccc6nc([C@H]7CCC[C@@H](O)C7)ccc6c5)C4)ccc3C2=O)C(=O)N1` (stereo partly drawn) [3-(5-{[(3S)-1-({2-[(1S,3R)-3-hydroxycyclohexyl]quinolin-6-yl}methyl)pyrrolidin-3-yl]oxy}-1-oxo-2,3-dihydro-1H-isoindol-2-yl)piperidine-2,6-dione]: in the assay with MKN45 cells (growth inhibition), the EC50 was determined as 11.1 nM. In addition, the “MKN45 Cell Prolif. 120 hr (Ymin-Obs)” value with MKN45 cells is on record as 7.93. The “293T-LentiX WEE1-ePL Degradation 4 hr (Ymin)” value at WEE1 (setting [2]) is on record as 32. On WEE1, the DC50 turned out to be 9.66 nM.

On to `O=C1CCC(N2Cc3cc(O[C@H]4CCN(Cc5ccc6nc([C@H]7CC[C@@H](O)C7)ccc6c5)C4)ccc3C2=O)C(=O)N1` (stereo partly drawn) [3-(5-{[(3S)-1-({2-[(1S,3R)-3-hydroxycyclopentyl]quinolin-6-yl}methyl)pyrrolidin-3-yl]oxy}-1-oxo-2,3-dihydro-1H-isoindol-2-yl)piperidine-2,6-dione], for which the EC50 in the assay on MKN45 cells (growth inhibition) was determined as 2.66 nM. Further, the “MKN45 Cell Prolif. 120 hr (Ymin-Obs)” value with MKN45 cells is reported as 7.68. Further, on WEE1 (setting [2]), the “293T-LentiX WEE1-ePL Degradation 4 hr (Ymin)” value is 31. Besides, the DC50 on WEE1 is 2.99 nM.

As for `CO[C@@H]1CCC[C@H](c2ccc3cc(CN4CC[C@H](Oc5ccc6c(c5)CN(C5CCC(=O)NC5=O)C6=O)C4)ccc3n2)C1` (stereo partly drawn) [3-(5-{[(3S)-1-({2-[(1S,3R)-3-methoxycyclohexyl]quinolin-6-yl}methyl)pyrrolidin-3-yl]oxy}-1-oxo-2,3-dihydro-1H-isoindol-2-yl)piperidine-2,6-dione], in the assay on MKN45 cells (growth inhibition), the EC50 worked out at 16.5 nM. In the assay on MKN45 cells, the “MKN45 Cell Prolif. 120 hr (Ymin-Obs)” value was found to be 9.143. Besides, on WEE1 (setting [2]), the “293T-LentiX WEE1-ePL Degradation 4 hr (Ymin)” value is recorded as 32. On WEE1, the DC50 turned out to be 28.7 nM.

Regarding `CO[C@@H]1CC[C@H](c2ccc3cc(CN4CC[C@H](Oc5ccc6c(c5)CN(C5CCC(=O)NC5=O)C6=O)C4)ccc3n2)C1` (stereo partly drawn) [3-(5-{[(3S)-1-({2-[(1S,3R)-3-methoxycyclopentyl]quinolin-6-yl}methyl)pyrrolidin-3-yl]oxy}-1-oxo-2,3-dihydro-1H-isoindol-2-yl)piperidine-2,6-dione], the EC50 in the assay with MKN45 cells (growth inhibition) was determined as 1.61 nM. Also, in the assay on MKN45 cells, the “MKN45 Cell Prolif. 120 hr (Ymin-Obs)” value is reported as 8.776. Further, at WEE1 (setting [2]), the “293T-LentiX WEE1-ePL Degradation 4 hr (Ymin)” value is 29.67. The DC50 on WEE1 amounted to 2.07 nM.

Turning to `COC[C@H]1CCC[C@H](c2ccc3cc(CN4CC[C@H](Oc5ccc6c(c5)CN(C5CCC(=O)NC5=O)C6=O)C4)ccc3n2)C1` (stereo partly drawn) [3-(5-{[(3S)-1-({2-[(1S,3S)-3-(methoxymethyl)cyclohexyl]quinolin-6-yl}methyl)pyrrolidin-3-yl]oxy}-1-oxo-2,3-dihydro-1H-isoindol-2-yl)piperidine-2,6-dione], in the assay on MKN45 cells, the EC50 was 5.71 nM and the “MKN45 Cell Prolif. 120 hr (Ymin-Obs)” value worked out at 11.34. Moreover, the “293T-LentiX WEE1-ePL Degradation 4 hr (Ymin)” value at WEE1 (setting [1]) is listed as 32.49. The DC50 on WEE1 amounted to 7.61 nM.

On to `COC[C@H]1CC[C@H](c2ccc3cc(CN4CC[C@H](Oc5ccc6c(c5)CN(C5CCC(=O)NC5=O)C6=O)C4)ccc3n2)C1` (stereo partly drawn) [3-(5-{[(3S)-1-({2-[(1S,3S)-3-(methoxymethyl)cyclopentyl]quinolin-6-yl}methyl)pyrrolidin-3-yl]oxy}-1-oxo-2,3-dihydro-1H-isoindol-2-yl)piperidine-2,6-dione], for which, in the assay with MKN45 cells, the EC50 was 2.52 nM and the “MKN45 Cell Prolif. 120 hr (Ymin-Obs)” value was found to be 8.033. For the same compound, the “293T-LentiX WEE1-ePL Degradation 4 hr (Ymin)” value at WEE1 (setting [1]) is 33.9. At WEE1, the DC50 was determined as 6.8 nM.
